# In patent publication US9765115B2, “Inhibitors of metastasis, methods of generating such inhibitors and their therapeutic applications” (Board of Supervisors of Louisiana State University acting …, priority 2011, dated 2017):
# Numbering of substitutions follows the chain as printed. Entries after “also recorded” stand apart in the source; their conditions may differ.
# Legend:
# CTR-ZO-1 interaction [1] = biological target: T1, CTR-ZO-1 interaction (Homo sapiens, UniProt P30988, E471A/S472A/S473A); test: CTR-ZO-1 co-immunoprecipitation; format: cell-based; settings: all CT concentrations
# T1 construct: PCR generated full length CTRwt and CTRΔESS cDNAs were cloned directionally into pcDNA3.1 mammalian expression vector; FLAG (N); expressed in transfected cells; host or cells: PC-31 / PC-3 cells stably expressing FLAG-CTRwt; ZO-1 is the cells' own
# T1 sequence (P30988 with tags, fused parts or gaps): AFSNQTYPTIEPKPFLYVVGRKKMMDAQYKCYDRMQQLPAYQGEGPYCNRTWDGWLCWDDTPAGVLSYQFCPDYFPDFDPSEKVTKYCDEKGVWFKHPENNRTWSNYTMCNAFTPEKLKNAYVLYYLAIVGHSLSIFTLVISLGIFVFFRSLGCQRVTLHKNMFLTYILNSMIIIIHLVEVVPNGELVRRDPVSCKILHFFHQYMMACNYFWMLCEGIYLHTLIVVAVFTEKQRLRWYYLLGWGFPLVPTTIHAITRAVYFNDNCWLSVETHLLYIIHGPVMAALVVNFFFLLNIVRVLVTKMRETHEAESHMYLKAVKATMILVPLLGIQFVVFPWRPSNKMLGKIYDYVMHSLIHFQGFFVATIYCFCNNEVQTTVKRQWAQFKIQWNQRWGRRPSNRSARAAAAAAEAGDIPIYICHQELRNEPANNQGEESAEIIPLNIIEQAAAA
# Description: (§1) Serum-starved PC-31-V, PC-31-CTRwt or PC-31-CTRΔESS cells (2×10^6 per 100 mm dish) were stimulated with or without 50 nM CT for 3 min, washed, and lysed in the IP buffer as previously described (von Zastrow et al., 1994). CTR in normalized lysate proteins was immunoprecipitated with anti-FLAG EZ-view beads (Sigma Chemical Co., St. Louis, Mo.), and eluted with FLAG peptide (600 μg/ml in PBS). CTR immunoprecipitates were processed for ZO-1 immunoblotting. To control for protein loading and transfer, the blots were stripped and reprobed with immunoprecipitating antibody.
# (§2) PC-31 cells stably expressing either FLAG-CTRwt or FLAGCTRΔESS were treated with or without CT for 3 min. The analysis of FLAG-CTR IPs confirmed that only FLAG-CTRwt, but not FLAG-CTRΔESS, co-precipitated ZO-1 (FIG. 3B). […] The effect of multiple CT concentrations on CTR-ZO-1 co-precipitation was tested in PC-3 cells. […] However, co-precipitation of ZO-1 by CTRwt was strong in PC-3 cells stimulated with 10 nM CT, and was even stronger in the cells receiving 100 nM CT.
# (§3) As shown above, CTR binds to ZO-1 through PDZ interaction (i.e. PDZ ligand on C-tail of CTR binds to the PDZ domain of ZO-1). To attenuate this binding, ZO-1 was saturated with a small C-terminal peptide of CTR sequence containing the PDZ-binding motif. Since ZO-1 is an intracellular membrane protein, the interfering peptide was delivered inside the plasma membrane. It has been shown that trans-activating transcriptional activator (TAT) protein (86-mer polypeptide) from HIV-1 enters mammalian cells when added to the surrounding media (Frankel et al., 1988; Green et al., 1989). Certain small regions of such proteins (10-16-mers) called protein transduction domains (PTDs), also efficiently traverse biological membranes (Elliott et al., 1997). Therefore, a fusion peptide Pep 1 was synthesized of TAT-peptide sequences of HIV virus and CTR-C(N-[…]-C (SEQ ID NO:2), CTR-C sequence underlined). The first experiment was to see if Pep I binds to ZO-1 in reversible fashion. For this, amino acid Y in Pep I was labeled with ^125I, and the binding with ZO-1 analyzed in the presence/absence of unlabeled Pep I (1000×; 20 μM). PC-3CTR-ZO-1-MYC cells were first incubated with unlabeled Pep I or control peptide (20 μM) for 5 min. The cells were then incubated with ^125I-pep I or C for 25 min. The cells were then washed in IP buffer, treated with DSP, and lysed. ZO-1 IPs were obtained, fractionated on SDS-PAGE, and autoradiographed. […] Next, whether Pep I competes with CTR for ZO-1 binding was tested. For this, PC-3-CTR-wt cells were treated with CT (50 nM) and or Pep I (50 μM) for 15 min. The CTR IPs were then immunoblotted and probed for ZO-1 immunoreactivity. […] Next, the biological impact of this phenomenon was examined by testing the effect of Pep I on CTR-stimulated invasion.
# CTR-ZO-1 interaction [2] = biological target: T2, CTR-ZO-1 interaction (Homo sapiens, UniProt P30988); test: CTR-ZO-1 co-immunoprecipitation; format: cell-based; settings: for co-precipitation of ZO-1 by CTRwt: 3 min, PC-3 cells
# T2 construct: PCR generated full length CTRwt and CTRΔESS cDNAs were cloned directionally into pcDNA3.1 mammalian expression vector; FLAG (N); expressed in transfected cells; host or cells: PC-31 / PC-3 cells stably expressing FLAG-CTRwt; ZO-1 is the cells' own
# T2 sequence (P30988 25-474): T1 sequence (P30988 with tags, fused parts or gaps) with A447E, A448S, A449S
# Description: as §1, §2, §3
substance,measurement,setting,value
calcitonin [CT],co-precipitation of ZO-1 by CTRΔESS,CTR-ZO-1 interaction [1],not co-precipitated
same,co-precipitation of ZO-1 by CTRwt,CTR-ZO-1 interaction [2]; 1 nM CT,barely detectable
same,co-precipitation of ZO-1 by CTRwt,CTR-ZO-1 interaction [2]; 10 nM CT,strong
same,"co-precipitation of ZO-1 with CTRwt, activated versus dormant",CTR-ZO-1 interaction [2]; CT 50 nM,much more efficiently; also recorded: increased
